Source: patent US20230365564A1, “COCRYSTALS OF AN ADENOSINE A2B RECEPTOR ANTAGONIST” (Teon Therapeutics, Inc., priority 2020, published 2023)

How the values were obtained:
[1] = Bulk stability (HPLC and XRPD); assay type: physicochemical
Experimental: The bulk stability of the free form and the cocrystals was determined by exposing the compounds to conditions of temperature, humidity and/or radiation flux and evaluating the compound by HPLC and XRPD.

[2] = Kinetic solubility (solubility-time profile) in biologically relevant fluids; assay type: physicochemical; conditions: for solubility-time profile: 0.5 h to 24 h; for solubility compared with the free form: several biologically relevant media; for solubility: 0.5 h, 2 h and 24 h
Experimental: The solubility-time profile of free form compound (1) and the three cocrystals was evaluated in different aqueous media.
(§1) The kinetic solubility experiments were conducted for the free form and the three cocrystals in the following media: (1) pH 1.0 (0.1N) HCl solution, (2) pH 4.5 (50 mM) acetate buffer, (3) pH 6.8 (50 mM) phosphate buffer, (4) FeSSIF-v1 (Fed state stimulated intestinal fluid version 1) (pH 5.0), (5) FaSSIF-v1 (Fasted state stimulated intestinal fluid version 1) (pH 6.5), (6) SGF (Simulated gastric fluid) (pH 2.0), and (7) FaSSIF-v1/4% Soluplus®, and (8) SGF/4% Soluplus®.
(§2) After combining with the respective media at 37° C., the concentration of the free form or cocrystal and the XRPD was measured at 0.5 hours, 2 hours, and 24 hours.

[3] = Dynamic vapor sorption (DVS) hygroscopicity; assay type: physicochemical; conditions: for water absorption (DVS): at 95% RH; for water absorption (DVS) / form change after DVS: 25° C.; for form change after DVS: humidity cycle 40-0-95-0-40% RH
Experimental: Dynamic vapor sorption (DVS) was performed using an Advantage instrument at a total gas flow rate of 200 sccm, an oven temperature of 25° C. with water as the solvent. The humidity cycle was 40-0-95-0-40% RH at step intervals of 10% RH with an equilibration of 0.002 dm/dt (%/min), a maximum, dm/dt stability duration of 60 min, and a maximum dm/dt stage time of 360 min.

[4] = XRPD form change after standing in aqueous media at 37° C.; assay type: physicochemical; conditions: for form change (XRPD) after equilibrating in the aqueous media: 24 hours at 37° C.
Experimental: X-ray powder diffraction (XRPD) was performed using a Bruker D8 Advance® instrument with a Lynxeye® XE T(1D mode) detector at an open angle of 2.94° in continuous scan mode using a Cu/K-α (λ−1.5418 Å) source. The diffraction patterns were obtain over a scan range from 3° to 40° with 0.02° steps, a step duration of 0.12, and a sample rotation speed of 15 rpm.
as §1, §2
The XRPD patterns shown in FIGS. 19-23 are associated with the aqueous media described in Table 1 and for the free form (Compound (1), FF), the benzenesulfonic acid cocrystal (BSA CC), the para-toluenesulfonic acid cocrystal (pTSA CC), and the fumaric acid cocrystal (FA CC).

[5] = Pharmacokinetics following peroral administration to dogs; parameters: species or system beagle dogs; conditions: dog, in vivo
Experimental: The pharmacokinetics of the fumaric acid cocrystal of Example 4 was evaluated following peroral administration to dogs.
Male beagle dogs were separated into two groups of three dogs.
[…] The dosing formulation consisted of 0.40 mg/mL of the fumaric acid cocrystal in 4% Soluplus® in simulated gastric fluid (SGF) at pH 2.0, as a homogeneous opaque suspension of fine particles.
[…] The dosing formulation consisted of 2 mg/mL of the fumaric acid cocrystal in 4% Soluplus® in simulated gastric fluid (SGF) at pH 2.0, as a homogeneous opaque suspension of fine particles.

[6] = Aqueous solubility of compound (1); assay type: physicochemical; conditions: aqueous medium; substantially independent of pH over a relevant physiological range
[7] = 25° C./60% RH in an open vial, 2 weeks
[8] = 40° C./75% RH in an open vial, 2 weeks
[9] = 60° C. in a closed vial, 2 weeks
[10] = above 80% RH at 25° C. (then becomes)
[11] = pH 1.0 HCl, pH 4.5 acetate, pH 6.8 phosphate, FeSSIF-v1, FaSSIF-v1
[12] = SGF, FaSSIF-v1/4% Soluplus and SGF/4% Soluplus
[13] = oral, 5 mg/kg, 0.5% methylcellulose
[14] = po, 2 mg/kg peroral, fed male beagle dogs, 4% Soluplus in SGF pH 2.0
[15] = po, 10 mg/kg peroral, fed male beagle dogs, 4% Soluplus in SGF pH 2.0

| Compound | bulk stability ([1]; 1.2 million lux-hrs) | bulk stability [1, 7] | bulk stability [1, 8] | bulk stability [1, 9] | solubility-time profile ([2]; FaSSIF-v1/4% Soluplus, 37° C.) | solubility-time profile ([2]; SGF/4% Soluplus, 37° C.) | solubility compared with the free form [2] | water adsorption ([3]; 25° C./80% RH) | water adsorption ([3]; 25° C./95% RH) | hygroscopicity (DVS) [3, 10] | water absorption (DVS) [3] | hygroscopicity (DVS) ([3]; below 80% RH at 25° C.) | form change after DVS [3] | form change (XRPD) after equilibrating in the aqueous media [4, 11] | form change after solubility study [4, 12] | further results |
| --- | --- | --- | --- | --- | --- | --- | --- | --- | --- | --- | --- | --- | --- | --- | --- | --- |
| CCCn1c(=O)c2[nH]c(-c3cnn(Cc4cccc(C(F)(F)F)c4)c3)nc2n(CC)c1=O.O=S(=O)(O)c1ccccc1 [benzenesulfonic acid cocrystal, 3-ethyl-1-propyl-8-(1-(3-(trifluoromethyl)benzyl)-1H-pyrazol-4-yl)-3,7-dihydro-1H-purine-2,6-dione and benzenesulfonic acid] | stable | stable | began to show some disassociation | stable | increased over time | increased over time | higher solubility than the free form | 2.2 wt % | 65 wt % | highly hygroscopic | 65% | only slightly hygroscopic | No form change | completely dissociated to the free form | dissociated to free form |  |
| CCCn1c(=O)c2[nH]c(-c3cnn(Cc4cccc(C(F)(F)F)c4)c3)nc2n(CC)c1=O.Cc1ccc(S(=O)(=O)O)cc1 [para-toluenesulfonic acid cocrystal, 3-ethyl-1-propyl-8-(1-(3-(trifluoromethyl)benzyl)-1H-pyrazol-4-yl)-3,7-dihydro-1H-purine-2,6-dione and para-toluenesulfonic acid] | did not exhibit any significant degradation | did not exhibit any significant degradation | did not exhibit any significant degradation | did not exhibit any significant degradation | first increased and then decreased | first increased and then decreased | higher solubility than the free form | 1.1 wt % | 1.1 wt % | slightly hygroscopic | 11% | only slightly hygroscopic | No form change | completely dissociated to the free form | dissociated to free form |  |
| CCCn1c(=O)c2[nH]c(-c3cnn(Cc4cccc(C(F)(F)F)c4)c3)nc2n(CC)c1=O [Compound (1), 3-Ethyl-1-propyl-8-(1-(3-(trifluoromethyl)benzyl)-1H-pyrazol-4-yl)-3,7-dihydro-1H-purine-2,6-dione] | did not exhibit any significant degradation | did not exhibit any significant degradation | did not exhibit any significant degradation | did not exhibit any significant degradation | increased over time | increased over time |  |  |  |  |  |  |  | did not show a change in form | no form change | Cmax [5, 13]: 81 ng/mL; Tmax [5, 13]: 2 h; half-life [5, 13]: 63 h; AUC(0-t) ([5]; oral, 5 mg/kg, 0.5% methylcellulose, read-out: AUC0-24): 796 ng·h/mL; solubility ([2]; FaSSIF-v1, 37° C.): below the level of quantification (LOQ); solubility ([2]; FeSSIF-v1, 37° C.): below the level of quantification (LOQ); solubility-time profile ([2]; SGF, 37° C.): maintained in the same magnitude; solubility ([2]; pH 1.0 HCl solution, 37° C.): below the level of quantification (LOQ); solubility ([2]; pH 4.5 acetate buffer, 37° C.): below the level of quantification (LOQ); solubility ([2]; pH 6.8 phosphate buffer, 37° C.): below the level of quantification (LOQ); solubility [6]: < 1 µg/mL |
| CCCn1c(=O)c2[nH]c(-c3cnn(Cc4cccc(C(F)(F)F)c4)c3)nc2n(CC)c1=O.O=C(O)/C=C/C(=O)O [fumaric acid cocrystal, 3-ethyl-1-propyl-8-(1-(3-(trifluoromethyl)benzyl)-1H-pyrazol-4-yl)-3,7-dihydro-1H-purine-2,6-dione and fumaric acid] | did not exhibit any significant degradation | did not exhibit any significant degradation | did not exhibit any significant degradation | did not exhibit any significant degradation |  |  | higher solubility than the free form | 1.7 wt % | 4.0 wt % |  | 4% |  | No form change |  |  | AUC(0-inf) [5, 14]: 2220 ng·h/mL; Cmax [5, 14]: 148 ng/mL; Tmax [5, 14]: 4 h; half-life [5, 14]: 14.8 h; AUC(0-inf) [5, 15]: 21100 ng·h/mL; Cmax [5, 15]: 976 ng/mL; Tmax [5, 15]: 10.7 h; half-life [5, 15]: 6.5 h; hygroscopicity (DVS) ([3]; above 90% RH at 25° C. (then becomes)): hygroscopic; hygroscopicity (DVS) ([3]; below 90% RH at 25° C.): slightly hygroscopic; form change (XRPD) after equilibrating in the aqueous media ([4]; FaSSIF-v1): only partially dissociated to the free form; form change (XRPD) after equilibrating in the aqueous media ([4]; FeSSIF-v1): only partially dissociated to the free form; form change (XRPD) after equilibrating in the aqueous media ([4]; pH 1.0 HCl solution): did not show any form change; form change (XRPD) after equilibrating in the aqueous media ([4]; pH 4.5 acetate buffer): only partially dissociated to the free form; form change after solubility study ([4]; FaSSIF-v1/4% Soluplus): converted to a mixture of the cocrystal and amorphous state (free form); form change after solubility study ([4]; SGF): dissociated to free form; form change after solubility study ([4]; SGF/4% Soluplus): converted to a mixture of the cocrystal and amorphous state (free form) |
